Results on two molecules are retold here after US8748603B2, “Crystalline forms of N-[2-[[(2,3-difluorophenyl)methyl]THIO]-6-{[(1R,2S)-2,3-dihydroxy-1-methylpropyl]oxy}-4-pyrimidinyl]-1-azetidinesulfonamide” (AstraZeneca AB, priority 2010, dated 2014).

A short description of the data set: Competitive slurry trials between A-form and D-form (thermodynamic stability). The data set is classed as physicochemical. Particulars: for Solid form stability in competitive slurry: slurries containing A-form and D-form in methanol, held at about 5° C. to about 50° C.; for Relative thermodynamic stability of crystalline forms: D-form versus A-form, conclusion from competitive slurries in methanol, about 5° C. to about 50° C. The procedure:
Competitive slurry trials were performed between the A-form (obtained by Example 1) and the D-form (obtained by Example 2).
Competitive slurries containing the A-form and D-form in methanol were held at any temperatures ranging from about 5° C. to about 50° C.
Complete conversion of the A-form to the D-form takes place, if the slurry is held at a particular temperature for a sufficient duration of time.

As for `C[C@@H](Oc1cc(NS(=O)(=O)N2CCC2)nc(SCc2cccc(F)c2F)n1)[C@@H](O)CO` [A-form, N-[2-[[(2,3-difluorophenyl)methyl]thio]-6-{[(1R,2S)-2,3-dihydroxy-1-methylpropyl]oxy}-4-pyrimidinyl]-1-azetidinesulfonamide], the “Solid form stability in competitive slurry” value is listed as “transforms to the D-form”.

Turning to `C[C@@H](Oc1cc(NS(=O)(=O)N2CCC2)nc(SCc2cccc(F)c2F)n1)[C@@H](O)CO` [D-form, N-[2-[[(2,3-difluorophenyl)methyl]thio]-6-{[(1R,2S)-2,3-dihydroxy-1-methylpropyl]oxy}-4-pyrimidinyl]-1-azetidinesulfonamide], the “Relative thermodynamic stability of crystalline forms” value is “thermodynamically more stable form than the A-form” and the “Solid form stability in competitive slurry” value was “remained stable”. Moreover, the “Relative thermodynamic stability of crystalline forms” value (listed as Form D) is “more thermodynamically stable than the A-form”.
